Drawing on PubChem BioAssay (NCI), this text covers TGI for 20 compounds.

Assay in all cases: DTP human tumour cell line panel, 48 h
Experiment [1] has as its system SF-295 CNS.
For experiment [2], the system named is HT29 colon.
The test system of experiment [3] is ACHN renal.
In experiment [4] the test system is HS 578T breast.
Experiment [5] relates to HOP-62 NSCLC.
The subject of experiment [6] is RXF 393 renal.
In experiment [7] the test system is MDA-N.
For experiment [8], the system named is BT-549 breast.
Experiment [9] relates to 786-0 renal.
Experiment [10] relates to SF-539 CNS.
The subject of experiment [11] is A498 renal.

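Step 1: Grow cells in 96-well plates. Step 2: Expose to compound for 48 hours at 5 concentrations. Step 3: Interpolate endpoints linearly; if unreached, use highest concentration. TGI: total growth inhibition.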

The TGI is the concentration giving total growth inhibition. In the case of `CCOc1cc(C2CC(c3ccc(NS(=O)(=O)c4cc([N+](=O)[O-])ccc4C)cc3)=NN2c2ccc([N+](=O)[O-])cc2[N+](=O)[O-])ccc1O` (stereo not given), the TGI in experiment [1] is 41.1 µM; in experiment [2] it was above 100 µM; in [3] it was 21.7 µM; in [4], 57.4 µM; in experiment [5] it was 27.3 µM; in [6], 27 µM. The TGI in [7] was found to be 39.5 µM; in experiment [8], 38.4 µM; in experiment [9], 6.71 µM; in experiment [10], 25.5 µM.
Regarding `CC1(C)CC(=O)c2c(nc3ccc4ccccc4c3c2-c2ccc(NC(=O)CCCCCCCCC(=O)Nc3ccc(-c4c5c(nc6ccc7ccccc7c46)CC(C)(C)CC5=O)cc3)cc2)C1`, the total growth inhibition concentration (TGI) in experiment [1], in [2], in experiment [11], in experiment [3], in [4] and in experiment [5] was above 100 µM each time. The TGI in experiment [7], in experiment [8], in experiment [9] and in experiment [10] was above 100 µM in each case.
Consider `O=C(O)c1ccn(-c2cccc(-n3ccc(C(=O)O)n3)n2)n1`, for which the TGI in [1], in experiment [2], in experiment [3], in [4], in [5] and in [6] was above 100 µM throughout. Further, the TGI in experiment [7], in experiment [8], in [9] and in [10] was above 100 µM each time.
As for `COc1c(O)cc(O)c2c(=O)cc(-c3ccccc3)oc12`, the TGI in experiment [1] is above 100 µM; in [2], above 100 µM; in experiment [3] it was above 100 µM; in experiment [4] it was above 100 µM; in [5], 49.8 µM; in experiment [6], 42.7 µM. The TGI in [7], in [8], in [9] and in experiment [10] was above 100 µM each time.
As to `COc1ccc(-n2c(=O)n(C)c(=O)n2-c2ccc(OC)cc2)cc1`, the TGI in experiment [1], in experiment [2], in experiment [11], in experiment [3], in experiment [4] and in experiment [5] was above 100 µM throughout. Further, the concentration for total growth inhibition (TGI) in experiment [7], in experiment [8], in experiment [9] and in experiment [10] was above 100 µM throughout.
For `C#CCSC(C=C=C)P(=O)(OC(C)C)OC(C)C` (stereo not given), the TGI is above 100 µM in experiment [1]; 94.5 µM in [2]; above 100 µM in experiment [11]; above 100 µM in [3]; 44.1 µM in experiment [4]; above 100 µM in experiment [5]. For the same compound, the TGI in experiment [6] is above 100 µM; in [7], above 100 µM; in experiment [8] it was 82.8 µM; in experiment [9] it was above 100 µM.
With `O=C(OCCN=c1c2ccccc2ccc2ccccc12)c1ccc([N+](=O)[O-])cc1`, the TGI in [1], in experiment [2], in experiment [3], in experiment [4], in experiment [5] and in experiment [6] was above 100 µM throughout. Further, the TGI in experiment [7], in [8], in [9] and in experiment [10] was above 100 µM each time.
With `COc1ccc(/C=C2\S/C(=N/Nc3nc(-c4ccccc4)cs3)NC2=O)cc1OC`, the concentration for total growth inhibition (TGI) in experiment [1] was 86.3 µM; in experiment [3] it was above 100 µM; in experiment [4] it was 83.3 µM; in experiment [5], above 100 µM; in [6], 52 µM; in experiment [7] it was 33.7 µM. Further, the TGI in [8] amounted to 81.3 µM; in [9], 93.4 µM; in experiment [10], 71.4 µM.
For the compound `CC1CC/C(=C\c2ccc(Cl)cc2)C2OC(N)=C(C#N)C(c3ccc(Cl)cc3)=C12` (stereo not given), the total growth inhibition concentration (TGI) in [2] came out at 20.7 µM; in experiment [3] it was 29.9 µM; in experiment [4], 49.1 µM; in [5], 9.84 µM; in [6], 71.8 µM; in [7] it was 32.2 µM. Moreover, the values for the TGI in experiment [8], in [9] and in experiment [10] were 30.7 µM, 26.5 µM and 28 µM, respectively.
Consider `COc1cc(/C=C2/C[C@H]3[C@@H]4CC=C5C[C@@H](OC(C)=O)CC[C@]5(C)[C@H]4CC[C@]3(C)NC2=O)cc(OC)c1OC`, for which the TGI is 65.9 µM in experiment [1]; above 100 µM in experiment [2]; 44.6 µM in experiment [3]; 74.2 µM in experiment [4]; 73.1 µM in experiment [5]; 39.4 µM in [6]. In addition, the total growth inhibition concentration (TGI) in experiment [7] is above 100 µM; in experiment [8], 55 µM; in experiment [9] it was 36.7 µM; in [10], 37.5 µM.
Consider `c1cn(C23C4C5C6C4C2C6C53)cn1` (stereo not given), for which the TGI in experiment [1], in experiment [2], in experiment [11], in [3], in [4] and in experiment [5] was above 100 µM throughout. Also, the TGI in experiment [7], in [8], in experiment [9] and in experiment [10] was above 100 µM in each case.
As to `O=c1oc2ccccc2cc1-c1cn2cc(Cl)ccc2n1`, the TGI is 5.36 µM in experiment [1]; above 59.8 µM in experiment [2]; 3.31 µM in experiment [3]; 8.19 µM in experiment [4]; 6.22 µM in [5]; 9.48 µM in [6]. The TGI in experiment [7] is 0.428 µM; in [8], 21.9 µM; in [9], 8.95 µM; in experiment [10], 22.2 µM.
Take `COC1OC2COC1(OC)C1OC(C)(C)OC21` (stereo not given): the TGI in experiment [1], in experiment [2], in experiment [11], in experiment [3], in [4] and in experiment [5] was above 100 µM each time. The TGI in experiment [6], in [7], in experiment [8] and in experiment [9] was above 100 µM throughout.
With `Cc1c2c(n(CCc3ccc(Cl)cc3)c1C)NC(c1ccccc1)C(C#N)S2(=O)=O` (stereo not given), the total growth inhibition concentration (TGI) in experiment [1] was above 100 µM; in experiment [2], above 65.9 µM; in experiment [11], above 100 µM; in experiment [3] it was above 100 µM; in experiment [4] it was above 79.5 µM; in [5], above 100 µM. The TGI in [7] is above 74.9 µM; in experiment [8], above 100 µM; in experiment [9], above 100 µM; in [10], above 100 µM.
Turning to `O=C1/C(=N\S(=O)(=O)c2ccccc2)C([n+]2ccc(Cc3ccccc3)cc2)=C([O-])c2ccccc21`, the TGI came to 3.22 µM in experiment [1]; 1.49 µM in experiment [2]; 4.33 µM in experiment [3]; 6.09 µM in experiment [4]; 3.27 µM in experiment [5]; 6.59 µM in experiment [6]. For the same compound, the TGI is 0.346 µM in [7], 2.72 µM in experiment [8], 3.58 µM in [9] and 3.45 µM in [10].
`Cc1c(NC(=O)CSC(=S)N2CCN(Cc3ccccc3)CC2)c(=O)n(-c2ccccc2)n1C`: the TGI in experiment [1], in experiment [2], in experiment [3], in experiment [4], in experiment [5] and in [6] was above 100 µM throughout. Also, the concentration for total growth inhibition (TGI) in experiment [7], in [8], in [9] and in experiment [10] was above 100 µM throughout.
On to `COc1ccc(-c2cc(-c3cc4cc(Br)ccc4nc3Cl)c(C#N)c(N)n2)cc1`, for which the TGI in [1], in experiment [2], in experiment [4], in experiment [5], in experiment [6] and in [7] was above 12.5 µM throughout. Moreover, the concentration for total growth inhibition (TGI) in experiment [8], in experiment [9] and in [10] was above 12.5 µM throughout.
On to `COc1ccc(C(SC2C(O)C(CO)OC2n2ccc(N)nc2=O)(c2ccccc2)c2ccc(OC)cc2)cc1` (stereo not given), for which the concentration for total growth inhibition (TGI) in [1] is 49.8 µM; in [2] it was 36.2 µM; in experiment [3], above 100 µM; in experiment [4], 48.1 µM; in [5], 40.5 µM; in experiment [6] it was 31.5 µM. Also, the TGI came to 24.2 µM in experiment [7], 43 µM in [8], 30.8 µM in [9] and 36.3 µM in [10].
On to `N#Cc1c(-c2ccc(Cl)cc2)c2c(n(C3OC(CO)C(O)C(O)C3O)c1=S)CCC2` (stereo not given), for which the TGI in experiment [2] was above 100 µM; in [3], above 100 µM; in experiment [4], 84.3 µM; in [5] it was 57 µM; in experiment [6], 63.2 µM; in [7], above 100 µM. For the same compound, the TGI in [8] is 65 µM; in [9], above 100 µM; in experiment [10] it was 42.3 µM.
As for `CCN(CC)c1ccc2cc(C(=O)Nc3cccc4ccccc34)c(=N)oc2c1`, the total growth inhibition concentration (TGI) in [1], in experiment [2], in experiment [3], in experiment [4], in [6] and in experiment [7] was above 100 µM throughout. In addition, the total growth inhibition concentration (TGI) in experiment [8] was 62.1 µM; in experiment [9], above 100 µM; in experiment [10], above 100 µM.
